Experimental data reported in US6632829B2, “Sulfonamides and derivatives thereof that modulate the activity of endothelin” (Texas Biotechnology Corp., priority 1996, dated 2003).
Values joined by “and” are separate entries in the source; they are usually repeats but may differ in a detail not shown here. Equal values may be shown once. One block for each compound: values may come before it.

Columns and labels:
human ETA receptors = molecular target: T1, human ETA receptors (Homo sapiens, UniProt P25101); test: Endothelin binding inhibition, Binding Test #1: competition with 125I-ET-1 for ETA receptors on TE 671 cell membranes
T1 construct: endogenous in cells; host or cells: TE 671 cells (ATCC HTB 139), membrane preparation
T1 sequence (P25101 21-427): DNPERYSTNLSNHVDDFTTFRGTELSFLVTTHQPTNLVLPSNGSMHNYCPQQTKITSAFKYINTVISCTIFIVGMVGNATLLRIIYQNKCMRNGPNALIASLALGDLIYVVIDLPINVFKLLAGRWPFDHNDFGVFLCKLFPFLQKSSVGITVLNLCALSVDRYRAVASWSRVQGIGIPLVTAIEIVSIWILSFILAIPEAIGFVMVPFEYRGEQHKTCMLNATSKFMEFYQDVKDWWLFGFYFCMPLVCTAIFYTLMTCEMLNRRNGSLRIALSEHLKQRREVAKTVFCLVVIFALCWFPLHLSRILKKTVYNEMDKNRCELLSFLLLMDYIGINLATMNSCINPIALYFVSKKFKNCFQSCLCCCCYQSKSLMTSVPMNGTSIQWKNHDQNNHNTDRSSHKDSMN

human ETB receptor = molecular target: T2, human ETB receptor (Homo sapiens, UniProt P24530); test: Endothelin binding inhibition, Binding Test #2: competition with 125I-ET-1 for ETB receptors on transfected COS7 cell membranes
T2 construct: expressed in transfected cells; host or cells: COS7 cells
T2 sequence (P24530 27-442): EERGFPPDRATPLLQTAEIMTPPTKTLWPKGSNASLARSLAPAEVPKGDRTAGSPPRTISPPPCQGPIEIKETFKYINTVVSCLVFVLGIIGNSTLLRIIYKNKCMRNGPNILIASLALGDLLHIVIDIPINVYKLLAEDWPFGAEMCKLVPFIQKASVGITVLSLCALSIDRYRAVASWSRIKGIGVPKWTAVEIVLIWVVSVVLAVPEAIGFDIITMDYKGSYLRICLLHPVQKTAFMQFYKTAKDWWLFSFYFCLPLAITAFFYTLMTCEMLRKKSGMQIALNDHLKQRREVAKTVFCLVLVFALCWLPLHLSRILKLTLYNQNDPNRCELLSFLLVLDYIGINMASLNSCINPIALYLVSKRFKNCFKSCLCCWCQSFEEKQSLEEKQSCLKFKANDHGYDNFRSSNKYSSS
In short: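 Membranes from COS7 cells transfected with human ETB receptor, prepared in HEPES pH 7.4 with aprotinin, MnCl2/DNase treatment at 37° C for 30 min. Test compounds compete with 125I-labeled ET-1 for receptor binding; membrane used at 1 μg/50 μL binding buffer.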

[1] = incubation at 24° C. (values marked †)
[2] = incubation at 4° C. (values without †)

- IC50 (human ETA receptors; [1]): 1.6 nM
- IC50 (human ETB receptor; [1]): 11300 nM
SMILES: Cc1cc(C)c(NC(=O)c2sccc2S(=O)(=O)Nc2onc(C)c2Cl)c(C)c1 [N-(4-chloro-3-methyl-5-isoxazolyl)-2-(2,4,6-trimethylphenylaminocarbonyl)thiophene-3-sulfonamide]

- IC50 (human ETA receptors; [1]): 7 nM
- IC50 (human ETB receptor; [1]): 18000 nM
SMILES: Cc1ccc(C)c(CC(=O)c2sccc2S(=O)(=O)Nc2onc(C)c2Cl)c1 [N-(4-chloro-3-methyl-5-isoxazolyl)-2-(2,5-dimethylphenylacetyl)thiophene-3-sulfonamide]

- IC50 (human ETA receptors; [1]): 11 nM
- IC50 (human ETB receptor; [1]): 61000 nM
SMILES: COc1cc(NC(=O)c2sccc2S(=O)(=O)Nc2onc(C)c2Cl)c(C(N)=O)cc1OC [N-(4-chloro-3-methyl-5-isoxazolyl)-2-(2-carboxamido-4,5-dimethoxyphenylaminocarbonyl)thiophene-3-sulfonamide]

- IC50 (human ETA receptors; [1]): 15.9 nM
- IC50 (human ETB receptor; [1]): 29500 nM
SMILES: Cc1cc(C)c(NC(=O)c2sccc2S(=O)(=O)Nc2onc(C)c2Cl)c(-c2ccccc2)c1 [N-(4-chloro-3-methyl-5-isoxazolyl)-2-(2-phenyl-4,6-dimethylphenylaminocarbonyl)thiophene-3-sulfonamide]

- IC50 (human ETA receptors; [1]): 45 nM
- IC50 (human ETB receptor; [1]): 17700 nM
SMILES: Cc1cc(C)cc(CC(=O)c2sccc2S(=O)(=O)Nc2onc(C)c2Cl)c1 [N-(4-chloro-3-methyl-5-isoxazolyl)-2-(3,5-dimethylphenylacetyl)thiophene-3-sulfonamide]

- IC50 (human ETA receptors; [1]): 11.9 nM
- IC50 (human ETB receptor; [1]): 22400 nM
SMILES: Cc1cc(C)c(C(=O)O)c(C)c1NC(=O)c1sccc1S(=O)(=O)Nc1onc(C)c1Cl [N-(4-chloro-3-methyl-5-isoxazolyl)-2-(3-carboxyl-2,4,6-trimethylphenylaminocarbonyl)thiophene-3-sulfonamide]

- IC50 (human ETA receptors; [1]): 0.321 nM and 0.92 nM
- IC50 (human ETB receptor; [1]): 16500 nM
SMILES: COC(=O)c1c(C)cc(C)c(NC(=O)c2sccc2S(=O)(=O)Nc2onc(C)c2Cl)c1C [N-(4-chloro-3-methyl-5-isoxazolyl)-2-(3-methoxycarbonyl-2,4,6-trimethylphenylaminocarbonyl)thiophene-3-sulfonamide]

- IC50 (human ETA receptors; [2]): 14 nM
- IC50 (human ETA receptors; [1]): 41 nM
- IC50 (human ETB receptor; [2]): 477 nM
- IC50 (human ETB receptor; [1]): 1300 nM
SMILES: Cc1noc(NS(=O)(=O)c2c(Cc3ccc(N(C)C)cc3)sc3ccccc23)c1Cl [N-(4-chloro-3-methyl-5-isoxazolyl)-2-(4-dimethylaminobenzyl)benzo[b]thiophene-3-sulfonamide]

- IC50 (human ETA receptors; [1]): 4410 nM
- inhibition at 100 µM (human ETB receptor; read-out: ETB % inhibition @ 100 μM, @ 100 μM, incubation at 24° C.): 31%
SMILES: Cc1noc(NS(=O)(=O)c2ccsc2C(=O)Oc2ccccc2)c1Cl [N-(4-chloro-3-methyl-5-isoxazolyl)-2-(phenoxycarbonyl)thiophene-3-sulfonamide]

- IC50 (human ETA receptors; [1]): 6330 nM
- IC50 (human ETB receptor; [1]): 8820 nM
SMILES: Cc1noc(NS(=O)(=O)c2c(-c3ccccc3C#N)sc3ccccc23)c1Cl [N-(4-chloro-3-methyl-5-isoxazolyl)-2-[2-(cyano)phenyl]benzo[b]thiophene-3-sulfonamide]

- IC50 (human ETA receptors; [1]): ~300 nM
- IC50 (human ETB receptor; [1]): ~700 nM
SMILES: Cc1noc(NS(=O)(=O)c2ccsc2C(=O)Cc2cc3c(cc2C#N)OCO3)c1Cl [N-(4-chloro-3-methyl-5-isoxazolyl)-2-[2-cyano-4,5-(methylenedioxy)phenylacetyl]thiophene-3-sulfonamide]

- IC50 (human ETA receptors; [1]): 3.8 nM
- IC50 (human ETB receptor; [1]): 25000 nM
SMILES: Cc1noc(NS(=O)(=O)c2ccsc2C(=O)Nc2c(CC#N)cc3c(c2CC#N)OCO3)c1Cl [N-(4-chloro-3-methyl-5-isoxazolyl)-2-[2-cyanomethyl-4,5-(methylenedioxy)-6-cyanomethyl]phenylaminocarbonylthiophene-3-sulfonamide]

- IC50 (human ETA receptors; [1]): 6.8 nM
- IC50 (human ETB receptor; [1]): 19800 nM
SMILES: Cc1noc(NS(=O)(=O)c2ccsc2C(=O)Nc2cc3c(cc2CNS(C)(=O)=O)OCO3)c1Cl [N-(4-chloro-3-methyl-5-isoxazolyl)-2-[2-methanesulfonylaminomethyl)-4,5-(methylenedioxy)phenylaminocarbonyl]thiophene-3-sulfonamide]

- IC50 (human ETA receptors; [1]): 3 nM
- IC50 (human ETB receptor; [1]): 355000 nM
SMILES: Cc1cc2c(cc1NC(=O)c1sccc1S(=O)(=O)Nc1onc(C)c1Cl)OCO2 [N-(4-chloro-3-methyl-5-isoxazolyl)-2-[2-methyl-4,5-(methylenedioxy)phenylaminocarbonyl]thiophene-3-sulfonamide]

Continued, compound first:

SMILES: Cc1noc(NS(=O)(=O)c2sccc2CC=Cc2cc3c(cc2COC2CCCCO2)OCO3)c1Br (centres unmarked) [N-(4-bromo-3-methyl-5-isoxazolyl)-3-{2-[(tetrahydro-4H-pyran-2-yloxy)methyl]-4,5-(methylenedioxy)cinnamyl}thiophene-2-sulfonamide]
- IC50 (human ETA receptors; [1]): 96.7 nM
- IC50 (human ETB receptor; [2]): 4140 nM

SMILES: CCCc1cc2c(cc1OCc1ccsc1S(=O)(=O)Nc1onc(C)c1Br)OCO2 [N-(4-bromo-3-methyl-5-isoxazolyl)-3-{[2-propyl-4,5-(methylenedioxy)phenoxy]methyl}thiophene-2-sulfonamide]
- IC50 (human ETA receptors; [1]): ~200 nM
- IC50 (human ETB receptor; [1]): ~1500 nM

SMILES: Cc1noc(NS(=O)(=O)c2csc(-c3ccccc3C=O)c2)c1Br [N-(4-bromo-3-methyl-5-isoxazolyl)-5-(2-formylphenyl)thiophene-3-sulfonamide]
- IC50 (human ETA receptors; [2]): 3460 nM
- IC50 (human ETA receptors; [1]): 12300 nM
- IC50 (human ETB receptor; [2]): 529 nM
- IC50 (human ETB receptor; [1]): 1280 ± 710 nM

SMILES: Cc1ccc(-c2ccc(S(=O)(=O)Nc3onc(C)c3Br)s2)s1 [N-(4-bromo-3-methyl-5-isoxazolyl)-5-(5-methyl-2-thienyl)thiophene-2-sulfonamide]
- IC50 (human ETA receptors; [1]): 17000 nM
- IC50 (human ETB receptor; [1]): 210 nM

SMILES: Cc1noc(NS(=O)(=O)c2ccc(-c3cc4ccccc4s3)s2)c1Br [N-(4-bromo-3-methyl-5-isoxazolyl)-5-(benzo[b]thien-2-yl)thiophene-2-sulfonamide]
- IC50 (human ETA receptors; [1]): 16000 nM
- IC50 (human ETB receptor; [1]): 800 nM

SMILES: COc1ccccc1Cc1sc2ccccc2c1S(=O)(=O)Nc1onc(C)c1Br [N-(4-bromo-3-methyl-5-isoxozolyl)-2-(2-methoxybenzyl)-benzo[b]thiophene-3-sulfonamide]
- IC50 (human ETA receptors; [1]): 190 nM
- IC50 (human ETB receptor; [1]): 2200 nM

SMILES: Cc1ccc(-c2ccc(S(=O)(=O)Nc3noc(C)c3Br)s2)cc1 [N-(4-bromo-5-methyl-3-isoxazolyl)-5-(4-methylphenyl)thiophene-2-sulfonamide]
- IC50 (human ETA receptors; [2]): 7100 nM
- IC50 (human ETA receptors; [1]): 15800 nM
- IC50 (human ETB receptor; [2]): 359 nM
- IC50 (human ETB receptor; [1]): 250 nM

SMILES: Cc1noc(NS(=O)(=O)c2ccsc2C(=O)OCCc2ccc3c(c2)OCO3)c1Cl [N-(4-chloro-3-methy-5-isoxazolyl)-2-[2-(3,4-methylenedioxyphenyl)]ethoxycarbonyl-3-sulfonamide]
- IC50 (human ETA receptors; [1]): 230 nM
- IC50 (human ETB receptor; [1]): 6200 nM

SMILES: Cc1cc(C)c(CC(=O)c2sccc2S(=O)(=O)Nc2onc(C)c2Cl)c(C)c1 [N-(4-chloro-3-methyl-5-isoxazolyl)-2-(2,4,6-trimethylphenylacetyl)thiophene-3-sulfonamide]
- IC50 (human ETA receptors; [1]): 0.238 nM
- IC50 (human ETB receptor; [1]): 3820 nM

SMILES: CC(=O)OCCOc1cc2c(cc1NC(=O)c1sccc1S(=O)(=O)Nc1onc(C)c1Cl)OCO2 [N-(4-chloro-3-methyl-5-isoxazolyl)-2-[3,4-(methylenedioxy)-6-(2-acetoxyethoxy)]phenylaminocarbonyl]thiophene-3-sulfonamide]
- IC50 (human ETA receptors; [1]): ~20 nM
- IC50 (human ETB receptor; [1]): ~18000 nM

SMILES: CC(=O)OCCc1cc2c(cc1NC(=O)c1sccc1S(=O)(=O)Nc1onc(C)c1Cl)OCO2 [N-(4-chloro-3-methyl-5-isoxazolyl)-2-[3,4-(methylenedioxy)-6-(2-acetoxyethyl)phenylaminocarbonyl]thiophene-3-sulfonamide]
- IC50 (human ETA receptors; [1]): 4.5 nM
- IC50 (human ETB receptor; [1]): 25700 nM
